Patent publication US10975068B2, “6-aminopyridin-3-yl thiazoles as modulators of RORγT” (Janssen Pharmaceutica NV, priority 2016, dated 2021)

Experiments:
full-length human RORγt = full-length human RORγt (Homo sapiens (Human), UniProt P51449); experiment: RORγt (full-length human) reporter assay, Conditions A; assay type: cell-based; conditions: Conditions A; for IC50: read-out: RORγt (FL) Reporter Assay A, IC50; for inhibition at 6 µM: read-out: RORγt (FL) Reporter Assay A, % inhibition @ 6 μM; for RORγt (FL) Reporter Assay A, % inhibition (value marked **): marked **: footnote not shown
full-length human RORγt, sequence (P51449 other isoform, or with tags, fused parts or gaps): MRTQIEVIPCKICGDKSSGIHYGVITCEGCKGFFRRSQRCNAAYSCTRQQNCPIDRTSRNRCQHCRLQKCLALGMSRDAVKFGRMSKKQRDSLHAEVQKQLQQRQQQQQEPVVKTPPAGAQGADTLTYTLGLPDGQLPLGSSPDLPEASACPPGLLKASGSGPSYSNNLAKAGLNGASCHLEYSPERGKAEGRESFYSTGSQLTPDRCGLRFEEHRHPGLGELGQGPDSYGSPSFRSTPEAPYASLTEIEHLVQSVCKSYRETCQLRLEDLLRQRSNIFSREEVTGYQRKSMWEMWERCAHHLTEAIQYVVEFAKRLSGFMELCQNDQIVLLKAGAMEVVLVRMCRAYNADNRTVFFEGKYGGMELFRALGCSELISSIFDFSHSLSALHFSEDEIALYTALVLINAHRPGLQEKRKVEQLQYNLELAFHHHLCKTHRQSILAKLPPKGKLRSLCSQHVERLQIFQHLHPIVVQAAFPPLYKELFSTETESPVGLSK
Excerpt: RORγt (Full-Length Human) Reporter Assay:
Cells used in this assay were transiently co-transfected with three different plasmids, one expressing the GAL4-DNA binding domain (DBD)-RORγt fusion protein under control of a CMV promoter (NH2-Gal4-DBD:RORC-COOH in pCMV-BD, Stratagene #211342), and two reporter plasmids—the firefly luciferase reporter under control of a GAL4 promoter (pFR-Luc 2×GAL4) and Renilla luciferase reporter under control of CMV promoter (pRL-CMV, Promega # E2261). The full-length coding sequence was used for human RORγt, i.e., nucleotides 142-1635 of human RORγt, transcript variant 2, NCBI Accession: NM_001001523.1 (SEQ ID NO:1). HEK293T cells were plated at 35000 per well in 96-well plate in medium of MEM with 8.6% FBS. After 18-22 hours incubation, the transfection was carried out by using a PEI solution with 170.5 ng total DNA/well (50 ng pCMV-BD-ROR plus 20 ng of pFR-Luc reporter and 0.5 ng of pRL-CMV reporter plus 100 ng Carrier DNA (Clontech #630440) for each well). 4-6 hours after transfection, cells were treated with compounds for overnight in the medium with final concentration of FBS 1.1% and DMSO 0.1%. After overnight (16 to 20 hours) incubation, media were removed and cells were lysed with 20 μL 1× Passive Lysis Buffer (Promega) for 10-15 minutes. Luminescence was measured using a BMG LUMIstar OPTIMA plate reader, after addition of 75 μL/well firefly luciferase buffer, followed by 75 μL/well Renilla luciferase buffer. To calculate the effect of compounds on RORγt activity, firefly values were normalized against values of DMSO only and values of reference compound at saturating concentration, then further normalized against Renilla signals. IC50s were generated by plotting final Renilla normalized data against compound concentration and percent inhibition was calculated against DMSO control.

[1] = target: human RORγt ligand binding domain (RORγt LBD) (Homo sapiens (Human), UniProt P51449); experiment: RORγt ThermoFluor® assay (thermal shift binding); conditions: read-out: ThermoFluor® Assay, Kd
human RORγt ligand binding domain (RORγt LBD), sequence (P51449 other isoform, or with tags, fused parts or gaps): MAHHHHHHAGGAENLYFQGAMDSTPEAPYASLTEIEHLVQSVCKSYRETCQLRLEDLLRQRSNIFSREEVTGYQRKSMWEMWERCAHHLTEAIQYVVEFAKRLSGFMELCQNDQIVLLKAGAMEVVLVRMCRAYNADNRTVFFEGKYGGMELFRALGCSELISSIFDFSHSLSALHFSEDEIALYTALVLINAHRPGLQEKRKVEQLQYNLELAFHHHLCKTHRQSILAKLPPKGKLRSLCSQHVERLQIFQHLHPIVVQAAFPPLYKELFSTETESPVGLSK
In short: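 Binding was inferred from thermal stabilisation (ΔTm) of the E. coli-expressed RORγt LBD (0.065 mg/mL), monitored by 1,8-ANS (60 μM) emission at 500 nm during a 1 °C/min ramp. Buffer was Hepes 100 mM pH 7.0 with NaCl, GSH and Tween-20.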

IC50 (full-length human RORγt) [µM] | inhibition at 6 µM (full-length human RORγt) [%] | Kd [1] [µM] | RORγt (FL) Reporter Assay A, % inhibition (value marked **) (full-length human RORγt) | SMILES
0.2 | 110 | 0.052 |  | CC(C)(O)CNC(=O)c1nc(C(=O)N2CCC(F)CC2)c(-c2cnc(NC3CCC(F)(F)C3)cc2C(F)(F)F)s1 (stereo not drawn) [Example 20, 5-(6-((3,3-Difluorocyclopentyl)amino)-4-(trifluoromethyl)pyridin-3-yl)-4-(4-fluoropiperidine-1-carbonyl)-N-(2-hydroxy-2-methylpropyl)thiazole-2-carboxamide]
0.1 |  | 0.037 | 99** % | CC(C)(O)CNC(=O)c1nc(C(=O)N2CCC(F)CC2)c(-c2cnc(NC3CCCC(F)(F)C3)c(C(F)(F)F)c2)s1 (stereo not drawn) [Example 13, 5-(6-((3,3-Difluorocyclohexyl)amino)-5-(trifluoromethyl)pyridin-3-yl)-4-(4-fluoropiperidine-1-carbonyl)-N-(2-hydroxy-2-methylpropyl)thiazole-2-carboxamide]
0.63 | 85 | 0.17 |  | CCOc1cc(NC2CCCCC2)ncc1-c1sc(C(=O)NCC(C)(C)O)nc1C(=O)N1CCC(F)CC1 [Example 69, 5-(6-(Cyclohexylamino)-4-ethoxypyridin-3-yl)-4-(4-fluoropiperidine-1-carbonyl)-N-(2-hydroxy-2-methylpropyl)thiazole-2-carboxamide]
0.079 |  | 0.035 | 100** % | CC(C)(O)CNC(=O)c1nc(C(=O)N2CCC(F)CC2)c(-c2cnc(NC3CCCCC3)c(C(F)(F)F)c2)s1 [Example 1, 5-(6-(Cyclohexylamino)-5-(trifluoromethyl)pyridin-3-yl)-4-(4-fluoropiperidine-1-carbonyl)-N-(2-hydroxy-2-methylpropyl)thiazole-2-carboxamide]
0.079 | 96 | 0.03 |  | CC(C)(O)CNC(=O)c1nc(C(=O)N2CCC(F)CC2)c(-c2cnc(NC3CCCC(F)(F)C3)cc2C(F)(F)F)s1 (stereo not drawn) [Example 23, 5-(6-((3,3-Difluorocyclohexyl)amino)-4-(trifluoromethyl)pyridin-3-yl)-4-(4-fluoropiperidine-1-carbonyl)-N-(2-hydroxy-2-methylpropyl)thiazole-2-carboxamide]
0.43 | 90.3 | 0.16 |  | Cc1c(-c2sc(C(=O)NCC(C)(C)O)nc2C(=O)N2CCC(F)CC2)cnc(NC2CCCCC2)c1C#N [Example 60, 5-(5-Cyano-6-(cyclohexylamino)-4-methylpyridin-3-yl)-4-(4-fluoropiperidine-1-carbonyl)-N-(2-hydroxy-2-methylpropyl)thiazole-2-carboxamide]
0.62 | 106 | 0.08 |  | CC(C)(O)CNC(=O)c1nc(C(=O)N2CCC(F)CC2)c(-c2cnc(NC3CCC(F)(F)CC3)cc2C(F)(F)F)s1 [Example 18, 5-(6-((4,4-Difluorocyclohexyl)amino)-4-(trifluoromethyl)pyridin-3-yl)-4-(4-fluoropiperidine-1-carbonyl)-N-(2-hydroxy-2-methylpropyl)thiazole-2-carboxamide]
0.4 | 98 | 0.052 |  | Cc1cc(NC2CCCCC2)ncc1-c1sc(C(=O)NCC(C)(C)O)nc1C(=O)N1CCC(F)CC1 [Example 67, 5-(6-(Cyclohexylamino)-4-methylpyridin-3-yl)-4-(4-fluoropiperidine-1-carbonyl)-N-(2-hydroxy-2-methylpropyl)thiazole-2-carboxamide]
0.77 | 93 | 0.17 |  | CC(C)(O)CNC(=O)c1nc(C(=O)N2CCC(F)CC2)c(-c2cnc(NC3CCCCC3)c(C#N)c2)s1 [Example 58, 5-(5-Cyano-6-(cyclohexylamino)pyridin-3-yl)-4-(4-fluoropiperidine-1-carbonyl)-N-(2-hydroxy-2-methylpropyl)thiazole-2-carboxamide]
1.1 | 70 | 0.37 |  | CC(C)(O)CNC(=O)c1nc(C(=O)N2CCC(F)CC2)c(-c2cnc(NC3CCCCC3)c(C#N)c2C(F)(F)F)s1 [Example 68, 5-(5-Cyano-6-(cyclohexylamino)-4-(trifluoromethyl)pyridin-3-yl)-4-(4-fluoropiperidine-1-carbonyl)-N-(2-hydroxy-2-methylpropyl)thiazole-2-carboxamide]
0.33 | 104 | 0.077 |  | CC(C)(O)CNC(=O)c1nc(C(=O)N2CCC(F)CC2)c(-c2cnc(NC3CCC3)cc2C(F)(F)F)s1 [Example 9, 5-(6-(Cyclobutylamino)-4-(trifluoromethyl)pyridin-3-yl)-4-(4-fluoropiperidine-1-carbonyl)-N-(2-hydroxy-2-methylpropyl)thiazole-2-carboxamide]
0.097 | 107 | 0.02 |  | CC(C)(O)CNC(=O)c1nc(C(=O)N2CCC(F)CC2)c(-c2cnc(NC3CC4(CCC4)C3)cc2C(F)(F)F)s1 [Example 24, 4-(4-Fluoropiperidine-1-carbonyl)-N-(2-hydroxy-2-methylpropyl)-5-(6-(spiro[3.3]heptan-2-ylamino)-4-(trifluoromethyl)pyridin-3-yl)thiazole-2-carboxamide]
0.039 |  | 0.0075 | 105** % | CC(C)(O)CCNC(=O)c1nc(C(=O)N2CCC(F)(F)CC2)c(-c2cnc(NC3CCCCC3)cc2C(F)(F)F)s1 [Example 15, 5-(6-(Cyclohexylamino)-4-(trifluoromethyl)pyridin-3-yl)-4-(4,4-difluoropiperidine-1-carbonyl)-N-(3-hydroxy-3-methylbutyl)thiazole-2-carboxamide]
0.34 | 95 | 0.12 |  | CC(C)(O)CNC(=O)c1nc(C(=O)N2CCC(F)CC2)c(-c2cnc(NCCC(F)(F)F)cc2C(F)(F)F)s1 [Example 8, 4-(4-Fluoropiperidine-1-carbonyl)-N-(2-hydroxy-2-methylpropyl)-5-(4-(trifluoromethyl)-6-((3,3,3-trifluoropropyl)amino)pyridin-3-yl)thiazole-2-carboxamide]
0.071 | 108 | 0.0081 |  | CC(C)(O)CNC(=O)c1nc(C(=O)N2CCC(F)CC2)c(-c2cnc(NC3CCCC3)cc2C(F)(F)F)s1 [Example 10, 5-(6-(Cyclopentylamino)-4-(trifluoromethyl)pyridin-3-yl)-4-(4-fluoropiperidine-1-carbonyl)-N-(2-hydroxy-2-methylpropyl)thiazole-2-carboxamide]
0.16 | 110 | ~0.01 |  | CC(C)(O)CNC(=O)c1nc(C(=O)N2CCC(F)CC2)c(-c2cnc(NC3CCCCC3)c(C(F)F)c2)s1 [Example 6, 5-(6-(Cyclohexylamino)-5-(difluoromethyl)pyridin-3-yl)-4-(4-fluoropiperidine-1-carbonyl)-N-(2-hydroxy-2-methylpropyl)thiazole-2-carboxamide]
